Experimental findings from ChEMBL document CHEMBL1201862, “PubChem BioAssay data set” (2004) are described below.

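Test compounds were applied to cells in 96-well plates for 48 hours at 5 doses. GI50 = concentration required for 50% inhibition of growth.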 Calls of active or inactive are those of the source. Cut-off read from the data, not from the text of the source: active = GI50 up to about 1.1 µM and inactive = higher. A value given as a limit tells only on which side of the number the result lay.

Some test systems named below: A498; A549; ACHN; BT-549; COLO 205; K562; LOX IMVI; MDA-MB-231; MDA-MB-435; NCI-H23; RPMI-8226; SF-268; SF-539; SK-MEL-5; SNB-19; SR; SW-620; T47D; CCRF-CEM; NCI-H522.
Common to all, as to experiment: growth of human tumour cells (NCI), 48 h

As for `Cn1c2ccccc2c(=O)c2cccc(C(=O)NC(CS)C(=O)O)c21` (stereo not given), the GI50 was > 100 µM (inactive) in the test on A498; > 100 µM (inactive) with A549; > 100 µM (inactive) in the test on ACHN; > 100 µM (inactive) in the test with BT-549; 67.5 µM (inactive) in the test on COLO 205; 52.1 µM (inactive) in the test on K562. For the same compound, the GI50 with LOX IMVI was 53.6 µM (inactive); with MDA-MB-231 it was 60.8 µM (inactive); in the test on MDA-MB-435 it was > 100 µM (inactive); in the test on NCI-H23 it was > 100 µM (inactive); in the test with RPMI-8226 it was 26.5 µM (inactive); with SF-268, 93.5 µM (inactive). Moreover, the GI50 in the test on SF-539 was 43.2 µM (inactive); in the test with SK-MEL-5, > 100 µM (inactive); with SNB-19, > 100 µM (inactive); with SR, 52.8 µM (inactive); in the test on SW-620 it was 84.9 µM (inactive); in the test with T47D, > 100 µM (inactive).

As for `C[C@H]1C(OCCOC2O[C@@H]3O[C@@]4(C)CC[C@H]5[C@H](C)CCC([C@H]2C)[C@@]35O4)O[C@@H]2O[C@@]3(C)CC[C@H]4[C@H](C)CCC1[C@@]24O3` (stereo not given in full), the GI50 was 46.7 µM (inactive) in the test on A498; 39.8 µM (inactive) with A549; 40.3 µM (inactive) in the test with ACHN; 95.7 µM (inactive) in the test on BT-549; 30.5 µM (inactive) in the test on CCRF-CEM; 16.7 µM (inactive) in the test with COLO 205. The GI50 was > 100 µM (inactive) in the test on K562; 23.7 µM (inactive) in the test with LOX IMVI; 27.2 µM (inactive) with MDA-MB-231; 38.4 µM (inactive) in the test on MDA-MB-435; 31.6 µM (inactive) in the test on NCI-H23; 58.6 µM (inactive) in the test on RPMI-8226. In addition, the GI50 was 50.5 µM (inactive) in the test with SF-268; 55.7 µM (inactive) in the test with SF-539; 15.3 µM (inactive) in the test with SK-MEL-5; 33.9 µM (inactive) with SNB-19; 32.2 µM (inactive) in the test on SR; 44.4 µM (inactive) with SW-620. Besides, in the test with T47D, the GI50 was 10.6 µM (inactive).

With `COc1ccc(/C=N\N2CC(=O)N3C4C=CC(CC4)N3C2=O)cc1` (stereo not given), the GI50 in the test on A498, with A549, with ACHN, in the test with BT-549, with CCRF-CEM and in the test with COLO 205 was > 100 µM (inactive) throughout. Also, the GI50 in the test with K562, in the test with LOX IMVI, with MDA-MB-231, with MDA-MB-435, in the test with NCI-H23 and in the test on RPMI-8226 was > 100 µM (inactive) each time. Further, the GI50 in the test on SF-268 was 88.7 µM (inactive); with SF-539, > 100 µM (inactive); in the test with SK-MEL-5, 54.7 µM (inactive); with SNB-19, > 100 µM (inactive); in the test with SR it was > 100 µM (inactive); in the test on SW-620 it was > 100 µM (inactive). Also, in the test on T47D, the GI50 was 85.7 µM (inactive).

Turning to `Cc1ccc(O)c(C2=CC3=NNC(=O)C3C(c3cccc(Cl)c3)C2)c1` (stereo not given), the GI50 was 61.9 µM (inactive) in the test with A498; 52.5 µM (inactive) in the test on A549; 30.5 µM (inactive) in the test with ACHN; 26.7 µM (inactive) in the test with BT-549; 31.6 µM (inactive) with CCRF-CEM; 16 µM (inactive) in the test with COLO 205. Besides, the GI50 with K562 was 37.1 µM (inactive); in the test on LOX IMVI, 23 µM (inactive); in the test on MDA-MB-231, 34.9 µM (inactive); in the test on MDA-MB-435, 32.7 µM (inactive); with NCI-H23 it was 36.7 µM (inactive); in the test on RPMI-8226, 24.4 µM (inactive). For the same compound, the GI50 in the test with SF-268 was 30.5 µM (inactive); in the test with SF-539 it was 45.2 µM (inactive); in the test with SK-MEL-5 it was 32.1 µM (inactive); with SNB-19, 50.6 µM (inactive); with SR it was 29.4 µM (inactive); in the test on SW-620, 38 µM (inactive). Moreover, the GI50 in the test on T47D was 28.1 µM (inactive).

Turning to `FC(F)(Sc1nc2ccccc2[nH]1)c1nc2ccccc2o1`, the GI50 in the test on A498 was > 100 µM (inactive); with A549 it was > 100 µM (inactive); with ACHN, > 100 µM (inactive); with BT-549, 75.5 µM (inactive); with CCRF-CEM, > 100 µM (inactive); in the test on COLO 205, > 100 µM (inactive). The GI50 was > 100 µM (inactive) with K562; > 100 µM (inactive) in the test with MDA-MB-231; > 100 µM (inactive) in the test with MDA-MB-435; > 100 µM (inactive) in the test on NCI-H23; 15.8 µM (inactive) in the test on NCI-H522; > 100 µM (inactive) in the test on RPMI-8226. Further, the GI50 with SF-268, with SF-539, with SK-MEL-5, in the test on SR, with SW-620 and in the test with T47D was > 100 µM (inactive) each time.

In the case of `C=CC(=O)N1C/C(=C\c2ccc(OC)cc2)C(=O)/C(=C/c2ccc(OC)cc2)C1`, the GI50 in the test on A498 was 1.73 µM (inactive); with A549, 2.47 µM (inactive); in the test with ACHN, 1.78 µM (inactive); in the test with BT-549, 1.71 µM (inactive); with CCRF-CEM, 1.78 µM (inactive); in the test on COLO 205, 2.99 µM (inactive). Also, the GI50 is 2.86 µM (inactive) with K562; 0.986 µM (active) in the test on LOX IMVI; 3.07 µM (inactive) in the test with MDA-MB-231; 2.06 µM (inactive) in the test with MDA-MB-435; 2.01 µM (inactive) in the test with NCI-H23; 0.247 µM (active) in the test with RPMI-8226. Further, the GI50 is 3.51 µM (inactive) in the test on SF-268; 1.71 µM (inactive) in the test on SF-539; 2.61 µM (inactive) in the test with SK-MEL-5; 7.18 µM (inactive) with SNB-19; 0.67 µM (active) in the test with SR; 1.46 µM (inactive) with SW-620. The GI50 with T47D was 6.56 µM (inactive).

Consider `CC[C@H]1OC([C@H](O)C/C=C\C#C[Si](C)(C)C)C/C=C\C[C@H]1O[Si](C)(C)C(C)(C)C` (stereo not given in full), for which the GI50 was > 100 µM (inactive) in the test with A498; > 100 µM (inactive) with A549; > 100 µM (inactive) with ACHN; > 100 µM (inactive) in the test on BT-549; 43.3 µM (inactive) with CCRF-CEM; > 100 µM (inactive) in the test on COLO 205. In addition, the GI50 in the test on K562 was > 100 µM (inactive); with LOX IMVI, 19.4 µM (inactive); in the test on MDA-MB-231 it was > 100 µM (inactive); with MDA-MB-435 it was > 100 µM (inactive); with NCI-H23 it was > 100 µM (inactive); in the test on NCI-H522, 40.9 µM (inactive). In addition, the GI50 was 37.8 µM (inactive) in the test on RPMI-8226; > 100 µM (inactive) in the test on SF-268; > 100 µM (inactive) with SK-MEL-5; > 100 µM (inactive) in the test on SNB-19; > 100 µM (inactive) with SR; > 100 µM (inactive) in the test with SW-620. The GI50 in the test with T47D is > 100 µM (inactive).

With `CCOC(=O)C1C(=O)CC1(C)C` (stereo not given), the GI50 in the test on A498, in the test with A549, with ACHN, in the test on BT-549, in the test on CCRF-CEM and in the test with COLO 205 was > 10 µM (inactive) each time. For the same compound, the GI50 in the test on K562, in the test on LOX IMVI, in the test on MDA-MB-231, in the test on MDA-MB-435, with NCI-H23 and with RPMI-8226 was > 10 µM (inactive) each time. Moreover, the GI50 in the test with SF-268, in the test on SF-539, in the test on SK-MEL-5, with SNB-19, in the test with SR and with SW-620 was > 10 µM (inactive) each time. In the test on T47D, the GI50 was > 10 µM (inactive).
